Drawing on patent publication US10710980B2, “Aminopyridine derivatives and their use as selective ALK-2 inhibitors” (priority 2016, dated 2020), this text covers IC50 for 15 compounds.

One test addresses ALK3 (aa198-525) (Homo sapiens (Human), UniProt P36894). The test can be described thus: ADPGlo biochemical autophosphorylation assay, ALK3. The settings on record: 15 μm ATP, 60 min at 32° C.
Test [1] addresses T1, wild-type ALK2 (aa172-499) (Homo sapiens (Human), UniProt Q04771). The test can be described thus: ADPGlo biochemical autophosphorylation assay, ALK2. Particulars: 15 μm ATP, 60 min at 32° C. (In general: ADP-Glo first removes unused ATP, then detects ADP through luciferase.)
The target in a further test is ALK5 (aa162-503) (Homo sapiens (Human), UniProt P36897). The test can be described thus: Caliper biochemical peptide phosphorylation assay, ALK5. Particulars: 15 μm ATP, 60 min at 30° C.; read-out: ALK5 EPK (IC50).
ALK5 (aa162-503), sequence (P36897 162-503): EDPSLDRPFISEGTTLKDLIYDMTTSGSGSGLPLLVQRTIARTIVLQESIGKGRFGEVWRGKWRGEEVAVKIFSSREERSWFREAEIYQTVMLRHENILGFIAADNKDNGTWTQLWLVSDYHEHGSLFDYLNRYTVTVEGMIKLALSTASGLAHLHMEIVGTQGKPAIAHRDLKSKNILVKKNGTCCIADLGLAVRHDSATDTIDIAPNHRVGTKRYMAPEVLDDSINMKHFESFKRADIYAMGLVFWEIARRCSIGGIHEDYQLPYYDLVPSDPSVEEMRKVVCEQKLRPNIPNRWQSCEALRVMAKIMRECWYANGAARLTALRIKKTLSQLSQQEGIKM
A further test addresses ALK1 (aa166-493) (Homo sapiens (Human), UniProt P37023). In words: Caliper biochemical peptide phosphorylation assay, ALK1. Particulars: 15 μm ATP, 60 min at 30° C.; read-out: ALK1 EPK (IC50).
For another test, the target named is ALK6 (aa168-495) (Homo sapiens (Human), UniProt O00238). The test can be described thus: Caliper biochemical peptide phosphorylation assay, ALK6. Particulars: 15 μm ATP, 60 min at 30° C.; read-out: ALK6 EPK (IC50).
ALK6 (aa168-495), sequence (O00238 168-495): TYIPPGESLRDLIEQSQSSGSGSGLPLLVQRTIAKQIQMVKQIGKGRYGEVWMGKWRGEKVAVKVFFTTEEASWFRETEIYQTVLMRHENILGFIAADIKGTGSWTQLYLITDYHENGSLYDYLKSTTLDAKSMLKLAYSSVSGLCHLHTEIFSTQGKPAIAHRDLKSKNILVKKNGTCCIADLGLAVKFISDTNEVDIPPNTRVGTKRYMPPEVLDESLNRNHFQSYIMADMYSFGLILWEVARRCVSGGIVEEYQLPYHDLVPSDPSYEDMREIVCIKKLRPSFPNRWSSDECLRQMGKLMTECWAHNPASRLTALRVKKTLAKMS
For test [2], the system named is BMP response element (BRE) luciferase reporter in HuH7 cells, BMP6 stimulated. In words: BMP signaling reporter gene assay. The settings on record: Homo sapiens, read-out: MSD BMP RGA IC50. The class given is cell-based. (Reporter assays use an easily measured gene product as a stand-in for the process of interest.)
Test [3] addresses T1, wild-type ALK2 (aa172-499). The test can be described thus: Caliper biochemical peptide phosphorylation assay, ALK2. Particulars: 15 μm ATP, 60 min at 30° C.; read-out: ALK2 EPK (IC50).
The mark [4] stands for this setting: Huh-7, HuH7 BRE-luciferase, BMP6 100 ng/ml, 5 hours.

Read-outs that look alike come from different tables or passages of the source.

ALK1 (aa166-493), sequence (P37023 166-493): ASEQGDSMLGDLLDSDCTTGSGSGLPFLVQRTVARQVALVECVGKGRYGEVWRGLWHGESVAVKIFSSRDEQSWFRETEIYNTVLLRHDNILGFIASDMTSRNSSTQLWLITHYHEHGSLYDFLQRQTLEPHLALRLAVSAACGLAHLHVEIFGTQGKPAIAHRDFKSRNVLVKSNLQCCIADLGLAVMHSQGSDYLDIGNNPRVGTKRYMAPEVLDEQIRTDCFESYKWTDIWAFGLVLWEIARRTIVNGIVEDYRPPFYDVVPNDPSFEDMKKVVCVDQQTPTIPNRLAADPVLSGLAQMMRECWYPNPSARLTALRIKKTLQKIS
T1 sequence (Q04771 172-499): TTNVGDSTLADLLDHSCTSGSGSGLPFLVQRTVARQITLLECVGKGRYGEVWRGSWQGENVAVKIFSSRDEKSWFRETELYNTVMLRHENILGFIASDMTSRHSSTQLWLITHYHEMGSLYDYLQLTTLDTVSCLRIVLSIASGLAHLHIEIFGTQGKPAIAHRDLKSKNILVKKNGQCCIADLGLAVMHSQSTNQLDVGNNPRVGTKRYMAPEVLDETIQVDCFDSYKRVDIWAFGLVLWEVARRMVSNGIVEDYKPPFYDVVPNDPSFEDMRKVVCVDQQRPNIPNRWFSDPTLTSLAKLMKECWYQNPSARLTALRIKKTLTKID
ALK3 (aa198-525), sequence (P36894 198-525): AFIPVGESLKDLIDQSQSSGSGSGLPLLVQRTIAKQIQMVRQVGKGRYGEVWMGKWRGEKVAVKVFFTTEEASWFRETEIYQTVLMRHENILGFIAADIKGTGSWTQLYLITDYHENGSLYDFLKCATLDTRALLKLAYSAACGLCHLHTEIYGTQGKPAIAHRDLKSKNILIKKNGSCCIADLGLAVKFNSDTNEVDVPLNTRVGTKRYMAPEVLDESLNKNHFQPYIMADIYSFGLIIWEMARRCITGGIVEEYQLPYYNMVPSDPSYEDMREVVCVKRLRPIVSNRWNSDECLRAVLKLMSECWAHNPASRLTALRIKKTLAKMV

The term IC50 denotes the concentration that inhibits the measured activity by half. For `C[C@@H]1CCCN1Cc1ccc(-c2cnc(N)c(C(=O)N[C@H]3CC[C@](C)(O)CC3)c2)cc1Cl` [Example 85, 2-amino-5-(3-chloro-4-(((R)-2-methylpyrrolidin-1-yl)methyl)phenyl)-N-((1r,4R)-4-hydroxy-4-methylcyclohexyl)nicotinamide], the 50% inhibitory concentration (IC50) was found to be 15100 nM against ALK3 (aa198-525); 190 nM in test [1]; 10000 nM on ALK5 (aa162-503); 9800 nM on ALK1 (aa166-493); 10000 nM at ALK6 (aa168-495); 860 nM in test [2] (setting [4]). Moreover, the IC50 in test [3] stood at 170 nM.

As for `Nc1ncc(-c2ccc([C@]34C[C@H]3CN(C(CF)CF)C4)cc2)cc1C(=O)N[C@H]1CC[C@H](O)CC1` [Example 66, 2-amino-5-(4-((1S,5R)-3-(1,3-difluoropropan-2-yl)-3-azabicyclo[3.1.0]hexan-1-yl)phenyl)-N-((1r,4S)-4-hydroxycyclohexyl)nicotinamide], the IC50 was determined as 1200 nM against ALK3 (aa198-525); 15 nM in test [1]; 10000 nM on ALK5 (aa162-503); 190 nM on ALK1 (aa166-493); 6200 nM on ALK6 (aa168-495); 910 nM in test [2] (setting [4]). In addition, the IC50 in test [3] came to 56 nM.

Regarding `Nc1ncc(-c2ccc([C@]34C[C@H]3CN(CCN3CCOCC3)C4)cc2)cc1C(=O)NC12CCC(O)(CC1)CC2` [Example 40, 2-amino-N-(4-hydroxybicyclo[2.2.2]octan-1-yl)-5-(4-((1S,5R)-3-(2-morpholinoethyl)-3-azabicyclo[3.1.0]hexan-1-yl)phenyl)nicotinamide], the IC50 amounted to 995 nM on ALK3 (aa198-525); 32 nM in test [1]; 3900 nM at ALK5 (aa162-503); 410 nM on ALK1 (aa166-493); 2850 nM on ALK6 (aa168-495); 75 nM in test [2] (setting [4]). In test [3], the 50% inhibitory concentration (IC50) worked out at 29 nM.

With `CC(C)N1C[C@@H]2C[C@]2(c2ccc(-c3cnc(N)c(C(=O)NC45CC(CO)(C4)C5)c3)cc2)C1` [Example 16, 2-amino-N-(3-(hydroxymethyl)bicyclo[1.1.1]pentan-1-yl)-5-(4-((1S,5R)-3-isopropyl-3-azabicyclo[3.1.0]hexan-1-yl)phenyl)nicotinamide], the IC50 on ALK3 (aa198-525) was determined as 1400 nM; in test [1] it was 12 nM; at ALK5 (aa162-503), 9900 nM; on ALK1 (aa166-493), 240 nM; on ALK6 (aa168-495) it was 5000 nM; in test [2] (setting [4]) it was 79 nM. Moreover, the concentration for half-maximal inhibition (IC50) in test [3] amounted to 15 nM.

For `CC(C)N1C[C@@H]2C[C@]2(c2ccc(-c3cnc(N)c(C(=O)N[C@H]4CC[C@@H](O)CC4)c3)cc2)C1` [Example 71, 2-amino-N-((1s,4R)-4-hydroxycyclohexyl)-5-(4-((1S,5R)-3-isopropyl-3-azabicyclo[3.1.0]hexan-1-yl)phenyl)nicotinamide], the IC50 against ALK3 (aa198-525) amounted to 2900 nM; in test [1], 22 nM; at ALK5 (aa162-503) it was 3000 nM; at ALK1 (aa166-493) it was 490 nM; on ALK6 (aa168-495) it was 5800 nM; in test [2] (setting [4]), 86 nM. Besides, the IC50 in test [3] was 65 nM.

Regarding `Nc1ncc(-c2ccc(C(=O)N3CCOCC3)cc2)cc1C(=O)NC1CCCCC1` [Example 69, 2-amino-N-cyclohexyl-5-(4-(morpholine-4-carbonyl)phenyl)nicotinamide], the IC50 against ALK3 (aa198-525) was determined as 3100 nM; in test [1] it was 41 nM; at ALK5 (aa162-503), 5200 nM; at ALK1 (aa166-493), 1100 nM; on ALK6 (aa168-495), 9000 nM; in test [2] (setting [4]), 1100 nM. Also, the IC50 in test [3] is 52 nM.

With `CC(F)(F)CN1C[C@H]2C[C@@]2(c2ccc(-c3cnc(N)c(C(=O)N[C@H]4CC[C@H](O)CC4)c3)cc2)C1` [Example 50, 2-amino-5-(4-((1R,5S)-3-(2,2-difluoropropyl)-3-azabicyclo[3.1.0]hexan-1-yl)phenyl)-N-((1r,4R)-4-hydroxycyclohexyl)nicotinamide], the IC50 amounted to 2400 nM at ALK3 (aa198-525); 11 nM in test [1]; 6400 nM at ALK5 (aa162-503); 500 nM on ALK1 (aa166-493); 5100 nM at ALK6 (aa168-495); 825 nM in test [2] (setting [4]). Also, in test [3], the IC50 is 37 nM.

Regarding `C[C@@H]1CCCN1Cc1ccc(-c2cnc(N)c(C(=O)N[C@H]3CC[C@](C)(O)CC3)c2)c(Cl)c1` [Example 81, 2-amino-5-(2-chloro-4-(((R)-2-methylpyrrolidin-1-yl)methyl)phenyl)-N-((1r,4R)-4-hydroxy-4-methylcyclohexyl)nicotinamide], the half-maximal inhibitory concentration (IC50) stood at 15100 nM on ALK3 (aa198-525); 150 nM in test [1]; 10000 nM at ALK5 (aa162-503); 3000 nM on ALK1 (aa166-493); 10000 nM at ALK6 (aa168-495); 1250 nM in test [2] (setting [4]). The IC50 in test [3] was 110 nM.

Consider `CC(C)N1C[C@H]2C[C@@]2(c2ccc(-c3cnc(N)c(C(=O)NC45CC(CO)(C4)C5)c3)cc2)C1` [Example 36, 2-amino-N-(3-(hydroxymethyl)bicyclo[1.1.1]pentan-1-yl)-5-(4-((1R,5S)-3-isopropyl-3-azabicyclo[3.1.0]hexan-1-yl)phenyl)nicotinamide], for which the IC50 against ALK3 (aa198-525) worked out at 1450 nM; in test [1], 16 nM; on ALK5 (aa162-503), 10000 nM; at ALK1 (aa166-493) it was 295 nM; on ALK6 (aa168-495) it was 7200 nM; in test [2] (setting [4]) it was 43 nM. Besides, in test [3], the IC50 is 23 nM.

For the compound `Nc1ncc(-c2ccc([C@@]34C[C@@H]3CN(C(CF)CF)C4)cc2)cc1C(=O)N[C@H]1CC[C@H](O)CC1` [Example 6, 2-amino-5-(4-((1R,5S)-3-(1,3-difluoropropan-2-yl)-3-azabicyclo[3.1.0]hexan-1-yl)phenyl)-N-((1r,4R)-4-hydroxycyclohexyl)nicotinamide], the IC50 on ALK3 (aa198-525) came to 940 nM; in test [1], 18 nM; at ALK5 (aa162-503), 10000 nM; at ALK1 (aa166-493) it was 220 nM; at ALK6 (aa168-495) it was 5200 nM; in test [2] (setting [4]) it was 870 nM. Moreover, the IC50 in test [3] amounted to 15 nM.

`Nc1ncc(-c2ccc([C@]34C[C@H]3CN(C3CCOCC3)C4)cc2)cc1C(=O)NC12CCC(O)(CC1)CC2` [Example 42, 2-amino-N-(4-hydroxybicyclo[2.2.2]octan-1-yl)-5-(4-((1S,5R)-3-(tetrahydro-2H-pyran-4-yl)-3-azabicyclo[3.1.0]hexan-1-yl)phenyl)nicotinamide]: the IC50 on ALK3 (aa198-525) came to 1300 nM; in test [1] it was 26 nM; at ALK5 (aa162-503) it was 4770 nM; on ALK1 (aa166-493), 540 nM; on ALK6 (aa168-495), 4100 nM; in test [2] (setting [4]), 235 nM. The IC50 in test [3] was found to be 29 nM.

For `Nc1ncc(-c2ccc(CN3CC4(CCC4)C3)cc2)cc1C(=O)N[C@H]1CC[C@H](O)CC1` [Example 23, 5-(4-(2-azaspiro[3.3]heptan-2-ylmethyl)phenyl)-2-amino-N-((1r,4r)-4-hydroxycyclohexyl)nicotinamide], the IC50 on ALK3 (aa198-525) worked out at 1600 nM; in test [1], 9 nM; on ALK5 (aa162-503) it was 2700 nM; at ALK1 (aa166-493), 250 nM; at ALK6 (aa168-495) it was 2400 nM; in test [2] (Huh-7, 5 h), 23 nM. Also, in test [3], the IC50 was determined as 18 nM.

`CN1CCN(C(=O)c2ccc(-c3cnc(N)c(C(=O)N[C@H]4CC[C@@H](O)CC4)c3)cc2)CC1` [Example 79, 2-amino-N-((1s,4s)-4-hydroxycyclohexyl)-5-(4-(4-methylpiperazine-1-carbonyl)phenyl)nicotinamide]: the IC50 at ALK3 (aa198-525) stood at 6500 nM; in test [1], 86 nM; on ALK5 (aa162-503), 4100 nM; on ALK1 (aa166-493), 890 nM; at ALK6 (aa168-495), 10000 nM; in test [2] (setting [4]), 2700 nM. In addition, the half-maximal inhibitory concentration (IC50) in test [3] was 87 nM.

Regarding `Nc1ncc(-c2ccc([C@@]34C[C@@H]3CN(C3CCOCC3)C4)cc2)cc1C(=O)N[C@@H]1CC[C@@H](O)[C@@H](F)C1` [Example 21, 2-amino-N-((1R,3S,4R)-3-fluoro-4-hydroxycyclohexyl)-5-(4-((1R,5S)-3-(tetrahydro-2H-pyran-4-yl)-3-azabicyclo[3.1.0]hexan-1-yl)phenyl)nicotinamide], the IC50 on ALK3 (aa198-525) turned out to be 260 nM; in test [1], 6 nM; at ALK5 (aa162-503), 900 nM; at ALK1 (aa166-493), 55 nM; on ALK6 (aa168-495), 1000 nM; in test [2] (setting [4]) it was 35 nM. Besides, in test [3], the IC50 amounted to 19 nM.

As to `C[C@@H]1CCCN1Cc1ccc(-c2cnc(N)c(C(=O)N[C@H]3CC[C@](C)(O)CC3)c2)c(F)c1` [Example 56, 2-amino-5-(2-fluoro-4-(((R)-2-methylpyrrolidin-1-yl)methyl)phenyl)-N-((1r,4R)-4-hydroxy-4-methylcyclohexyl)nicotinamide], the IC50 is 9900 nM on ALK3 (aa198-525); 28 nM in test [1]; 5800 nM at ALK5 (aa162-503); 930 nM on ALK1 (aa166-493); 10000 nM at ALK6 (aa168-495); 285 nM in test [2] (setting [4]). The IC50 in test [3] came out at 30 nM.
